Structures are written as SMILES. Read-outs that look alike come from different tables or passages of the source.

What all share (test): selectivity profiling in a panel of 340 wild-type kinases (Reaction Biology Europe)
Holding throughout (type): binding

Test [1] concerns the target T1, 340 wild-type kinases (Homo sapiens, UniProt O60674).
T1 construct: purchased Reaction Biology Europe

The target in test [2] is T2, 340 wild-type kinases (Homo sapiens, UniProt P37173).
T2 construct: purchased Reaction Biology Europe

Test [3] concerns the target T3, 340 wild-type kinases (Homo sapiens, UniProt Q9BUB5).
T3 construct: purchased Reaction Biology Europe

Test [4] concerns the target T4, 340 wild-type kinases (Homo sapiens, UniProt O14965).
T4 construct: purchased Reaction Biology Europe
T4 sequence (O14965 1-403): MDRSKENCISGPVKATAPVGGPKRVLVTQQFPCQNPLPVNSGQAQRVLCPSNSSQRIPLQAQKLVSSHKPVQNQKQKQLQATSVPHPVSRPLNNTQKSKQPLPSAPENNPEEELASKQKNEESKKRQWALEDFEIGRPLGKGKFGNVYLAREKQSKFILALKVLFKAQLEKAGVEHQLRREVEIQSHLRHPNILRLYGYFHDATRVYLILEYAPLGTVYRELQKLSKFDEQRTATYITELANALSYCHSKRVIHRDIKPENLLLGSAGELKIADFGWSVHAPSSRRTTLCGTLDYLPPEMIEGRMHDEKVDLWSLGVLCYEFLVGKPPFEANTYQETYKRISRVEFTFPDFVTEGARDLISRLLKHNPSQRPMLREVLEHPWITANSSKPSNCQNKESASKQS

The target in test [5] is T5, 340 wild-type kinases (Homo sapiens, UniProt Q9UF33).
T5 construct: purchased Reaction Biology Europe
T5 sequence (Q9UF33 23-1036): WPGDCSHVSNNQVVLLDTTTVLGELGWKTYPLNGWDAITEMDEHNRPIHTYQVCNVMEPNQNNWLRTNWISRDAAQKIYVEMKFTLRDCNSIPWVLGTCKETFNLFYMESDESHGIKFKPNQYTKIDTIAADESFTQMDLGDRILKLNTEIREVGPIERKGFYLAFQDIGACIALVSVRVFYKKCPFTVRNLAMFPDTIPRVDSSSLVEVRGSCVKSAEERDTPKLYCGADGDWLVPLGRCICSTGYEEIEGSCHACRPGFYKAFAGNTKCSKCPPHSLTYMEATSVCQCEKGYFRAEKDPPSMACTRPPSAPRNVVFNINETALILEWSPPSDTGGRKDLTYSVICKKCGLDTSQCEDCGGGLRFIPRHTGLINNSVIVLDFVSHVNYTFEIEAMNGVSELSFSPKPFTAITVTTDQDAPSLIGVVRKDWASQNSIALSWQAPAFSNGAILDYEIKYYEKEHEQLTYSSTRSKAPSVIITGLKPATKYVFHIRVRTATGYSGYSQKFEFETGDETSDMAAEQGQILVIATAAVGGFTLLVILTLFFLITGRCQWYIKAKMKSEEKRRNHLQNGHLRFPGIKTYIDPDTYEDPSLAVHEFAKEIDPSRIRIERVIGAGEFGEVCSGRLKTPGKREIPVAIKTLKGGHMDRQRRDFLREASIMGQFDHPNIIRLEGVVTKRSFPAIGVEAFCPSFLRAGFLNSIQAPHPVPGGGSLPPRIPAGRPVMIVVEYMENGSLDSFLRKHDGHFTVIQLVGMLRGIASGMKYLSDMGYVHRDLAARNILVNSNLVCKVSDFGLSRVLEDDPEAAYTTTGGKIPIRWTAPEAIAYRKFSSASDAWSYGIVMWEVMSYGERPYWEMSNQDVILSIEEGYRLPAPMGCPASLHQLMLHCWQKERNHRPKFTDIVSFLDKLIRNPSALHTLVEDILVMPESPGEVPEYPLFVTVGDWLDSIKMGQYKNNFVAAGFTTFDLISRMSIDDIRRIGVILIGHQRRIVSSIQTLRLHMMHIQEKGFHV

The target of test [6] is T6, 340 wild-type kinases (Homo sapiens, UniProt P33981).
T6 construct: purchased Reaction Biology Europe
T6 sequence (P33981 1-857): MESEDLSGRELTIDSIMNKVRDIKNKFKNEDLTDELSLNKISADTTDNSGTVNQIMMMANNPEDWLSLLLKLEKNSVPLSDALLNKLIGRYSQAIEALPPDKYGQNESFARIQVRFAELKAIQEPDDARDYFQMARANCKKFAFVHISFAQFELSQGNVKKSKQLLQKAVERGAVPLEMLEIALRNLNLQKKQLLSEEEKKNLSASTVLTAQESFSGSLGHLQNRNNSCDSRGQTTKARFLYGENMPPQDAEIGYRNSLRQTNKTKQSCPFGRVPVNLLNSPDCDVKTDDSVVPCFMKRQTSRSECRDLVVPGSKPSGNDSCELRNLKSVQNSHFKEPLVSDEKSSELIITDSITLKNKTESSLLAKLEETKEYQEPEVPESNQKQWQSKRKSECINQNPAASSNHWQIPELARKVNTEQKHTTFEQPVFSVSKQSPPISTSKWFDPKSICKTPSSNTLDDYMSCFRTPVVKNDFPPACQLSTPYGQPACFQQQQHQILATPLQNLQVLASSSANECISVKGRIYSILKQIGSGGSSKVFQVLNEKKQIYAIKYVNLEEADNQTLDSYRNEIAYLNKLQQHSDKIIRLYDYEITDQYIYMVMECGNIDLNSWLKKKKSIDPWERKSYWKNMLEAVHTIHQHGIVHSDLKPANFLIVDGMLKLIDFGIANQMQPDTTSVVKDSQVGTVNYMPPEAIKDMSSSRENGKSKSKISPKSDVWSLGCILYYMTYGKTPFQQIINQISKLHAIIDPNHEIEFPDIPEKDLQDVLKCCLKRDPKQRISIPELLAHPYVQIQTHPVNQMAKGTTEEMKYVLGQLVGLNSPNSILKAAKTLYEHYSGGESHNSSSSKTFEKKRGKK

T3 sequence (Q9BUB5 whole entry): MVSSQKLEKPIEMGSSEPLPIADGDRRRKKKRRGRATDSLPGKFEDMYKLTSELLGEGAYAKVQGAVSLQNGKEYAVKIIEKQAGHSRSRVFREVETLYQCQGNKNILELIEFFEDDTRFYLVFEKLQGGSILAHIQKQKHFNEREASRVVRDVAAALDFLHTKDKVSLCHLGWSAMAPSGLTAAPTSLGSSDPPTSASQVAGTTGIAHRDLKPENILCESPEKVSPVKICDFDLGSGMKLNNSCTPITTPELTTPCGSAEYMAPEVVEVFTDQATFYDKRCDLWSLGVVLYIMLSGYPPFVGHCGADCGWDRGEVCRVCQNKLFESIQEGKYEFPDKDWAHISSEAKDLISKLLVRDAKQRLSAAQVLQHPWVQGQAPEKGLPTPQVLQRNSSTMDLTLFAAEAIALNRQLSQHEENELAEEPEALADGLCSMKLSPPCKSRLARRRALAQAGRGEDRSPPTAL
T2 sequence (P37173 23-567): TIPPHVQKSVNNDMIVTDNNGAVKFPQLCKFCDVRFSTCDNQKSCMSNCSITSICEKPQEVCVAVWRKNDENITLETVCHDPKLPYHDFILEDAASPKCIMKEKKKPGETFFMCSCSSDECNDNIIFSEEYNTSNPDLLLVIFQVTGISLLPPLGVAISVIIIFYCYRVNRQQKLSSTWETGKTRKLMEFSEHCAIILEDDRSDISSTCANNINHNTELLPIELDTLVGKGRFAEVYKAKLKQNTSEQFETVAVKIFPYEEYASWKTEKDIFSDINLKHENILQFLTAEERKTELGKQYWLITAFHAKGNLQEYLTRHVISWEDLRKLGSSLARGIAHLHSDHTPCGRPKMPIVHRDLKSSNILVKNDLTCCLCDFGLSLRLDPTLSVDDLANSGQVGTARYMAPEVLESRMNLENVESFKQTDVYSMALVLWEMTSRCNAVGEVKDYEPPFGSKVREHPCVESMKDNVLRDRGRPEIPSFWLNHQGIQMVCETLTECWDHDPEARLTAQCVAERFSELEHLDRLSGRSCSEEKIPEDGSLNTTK
T1 sequence (O60674 whole entry): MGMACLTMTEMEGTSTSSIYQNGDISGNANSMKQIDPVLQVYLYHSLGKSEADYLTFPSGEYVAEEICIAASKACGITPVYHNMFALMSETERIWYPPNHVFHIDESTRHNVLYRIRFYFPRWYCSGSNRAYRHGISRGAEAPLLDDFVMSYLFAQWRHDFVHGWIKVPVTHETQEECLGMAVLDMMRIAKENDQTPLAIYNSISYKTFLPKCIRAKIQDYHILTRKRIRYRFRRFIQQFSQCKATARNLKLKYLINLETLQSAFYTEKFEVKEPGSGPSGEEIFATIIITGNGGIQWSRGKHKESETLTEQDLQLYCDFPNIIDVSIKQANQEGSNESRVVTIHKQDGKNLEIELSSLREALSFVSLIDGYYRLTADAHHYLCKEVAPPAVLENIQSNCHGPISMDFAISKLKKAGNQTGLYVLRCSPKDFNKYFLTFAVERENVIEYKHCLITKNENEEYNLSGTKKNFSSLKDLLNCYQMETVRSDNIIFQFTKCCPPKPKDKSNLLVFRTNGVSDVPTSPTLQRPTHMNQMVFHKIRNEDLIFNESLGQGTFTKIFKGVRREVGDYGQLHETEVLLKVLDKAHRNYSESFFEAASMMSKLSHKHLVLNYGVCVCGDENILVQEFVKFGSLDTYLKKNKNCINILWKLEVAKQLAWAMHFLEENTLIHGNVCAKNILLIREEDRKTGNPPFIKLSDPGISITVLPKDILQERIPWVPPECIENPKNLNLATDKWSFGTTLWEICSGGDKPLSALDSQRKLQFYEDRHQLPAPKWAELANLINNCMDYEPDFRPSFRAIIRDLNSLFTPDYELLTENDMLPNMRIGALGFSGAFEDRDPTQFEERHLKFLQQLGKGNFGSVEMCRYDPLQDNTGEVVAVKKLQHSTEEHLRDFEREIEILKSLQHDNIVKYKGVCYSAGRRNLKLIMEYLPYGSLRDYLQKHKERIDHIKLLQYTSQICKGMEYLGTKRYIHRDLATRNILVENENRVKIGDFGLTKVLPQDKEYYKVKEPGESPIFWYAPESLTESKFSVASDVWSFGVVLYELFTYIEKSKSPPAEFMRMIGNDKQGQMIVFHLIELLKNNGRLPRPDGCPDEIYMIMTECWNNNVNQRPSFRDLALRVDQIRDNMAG

For the compound `CNC(=O)c1ccc2c(c1)C(=O)c1ccc(Nc3ccc(F)c(NC(=O)C4CC4)c3)cc1CC2` [Compound 2015], the remaining activity at 0.2 µM was found to be 104% on 340 wild-type kinases [1] (0.2 µM 2015, read-out: JAK2 residual activity); 104% at 340 wild-type kinases [1] (JAK2, 0.2 µM, read-out: residual activity); 78.4% on 340 wild-type kinases [2] (0.2 µM 2015, read-out: TGFBR2 residual activity); 78.3% on 340 wild-type kinases [2] (TGFBR2, 0.2 µM, read-out: residual activity); 98.2% at 340 wild-type kinases [3] (0.2 µM 2015, read-out: MKNK1 residual activity); 98.2% at 340 wild-type kinases [3] (MKNK1, 0.2 µM, read-out: residual activity). Besides, the remaining activity at 0.2 µM on 340 wild-type kinases [4] (0.2 µM 2015, read-out: AuroraA residual activity) amounted to 98.6%; on 340 wild-type kinases [4] (AuroraA, 0.2 µM, read-out: residual activity) it was 98.5%; at 340 wild-type kinases [5] (0.2 µM 2015, read-out: EPHA6 residual activity), 87.2%; at 340 wild-type kinases [5] (EPHA6, 0.2 µM, read-out: residual activity), 87.2%; at 340 wild-type kinases [6] (0.2 µM 2015, read-out: TTK residual activity) it was 95.3%; at 340 wild-type kinases [6] (TTK, 0.2 µM, read-out: residual activity), 95.3%. Also, the remaining activity at 1 µM at 340 wild-type kinases [1] (1 µM 2015, read-out: JAK2 residual activity) was found to be 102%; on 340 wild-type kinases [1] (JAK2, 1 µM, read-out: residual activity) it was 102%; on 340 wild-type kinases [2] (1 µM 2015, read-out: TGFBR2 residual activity), 76.8%; on 340 wild-type kinases [2] (TGFBR2, 1 µM, read-out: residual activity) it was 76.8%; on 340 wild-type kinases [3] (1 µM 2015, read-out: MKNK1 residual activity), 91.6%; at 340 wild-type kinases [3] (MKNK1, 1 µM, read-out: residual activity), 91.6%. Also, the remaining activity at 1 µM is 103% on 340 wild-type kinases [4] (1 µM 2015, read-out: AuroraA residual activity); 103% at 340 wild-type kinases [4] (AuroraA, 1 µM, read-out: residual activity); 85.9% on 340 wild-type kinases [5] (1 µM 2015, read-out: EPHA6 residual activity); 85.9% at 340 wild-type kinases [5] (EPHA6, 1 µM, read-out: residual activity); 90.4% on 340 wild-type kinases [6] (1 µM 2015, read-out: TTK residual activity); 90.4% at 340 wild-type kinases [6] (TTK, 1 µM, read-out: residual activity).

(Values after paper PMC11864979, “First-in-class ultralong-target-residence-time p38α inhibitors as a mitosis-targeted therapy for colorectal cancer” (Nature Cancer, 2025).)
